Test results taken from US20210048439A1, “CAGED AMINO ACIDS FOR CONTROLLED METABOLIC INCORPORATION AND METHODS OF USE” (University of Washington, priority 2018, published 2021).

Columns and labels:
[1] = tested on: HeLa cells; experiment: Metabolic labeling of Met-depleted HeLa cells; Aha incorporation quantified by protein fluorescence (FAM-BCN, SDS-PAGE); assay type: cell-based
Description: Subsequent irradiation with UV light (λ=365 nm, 10 mW cm^−2, 5 min) yielded photoliberated Aha for metabolic incorporation. Two hours after light exposure, cells were lysed and their proteins were treated with a bicyclononyne-modified fluorescein (FAM-BCN, 100 nM, FIG. 2E) to introduce a fluorescent label by SPAAC. Protein fluorescence was then used to quantify the extent of Aha incorporation following protein separation by sodium dodecyl sulfate polyacrylamide gel electrophoresis (SDS-PAGE).
To control the extent of ncAA incorporation into newly synthesized proteins, NPPOC-Aha concentration was varied (0-250 μM) and the intensity of light irradiation (0-10 mW cm^−2) employed during photo-uncaging. […] To determine the potential effects of UV irradiation on metabolic incorporation, labeled protein fluorescence was compared for samples treated with Aha (50 μM)+/−light (10 mW cm^−2, 5 min) (FIG. 3D).
For in vitro work, borosilicate well plates (Mattek, P35G-1.5-14-C) were pretreated with high glucose Dulbecco's Modified Eagle Media (DMEM) supplemented with fetal bovine serum (FBS, 10%) and penicillin-streptomycin (PS, 1%). Plates were incubated at 37° C. for 10 minutes. HeLa cells were cultured on tissue culture polystyrene before seeding on borosilicate glass. After cells reached the desired confluency (50-60% for imaging; 80-90% for lysate analysis), cells were subjected to the following experiments.
Cells were rinsed with warm 1× Dulbecco's phosphate buffered saline (DPBS) and starved of methionine (Met) by the addition of Met-depleted media (1 h, 37° C.). Met-depleted media was prepared by adding L-cystine-2HCl (0.2 mM), L-glutamine (4 mM), and sodium pyruvate (1 mM) to depleted media (Fisher, 21013024). Media was removed and cells were treated with media containing NPPOC-Aha at the desired concentration (0-250 μM). Control media consisted of Aha or Met in the place of NPPOC-Aha. Cells were then irradiated with light (365 nm, 1-10 mW/cm2, 5 min). The cultures were then incubated (2 h, 37° C.) to promote Aha incorporation. The cells were then washed with 1×DPBS (37° C.).
Samples were prepared for sodium dodecyl sulfate polyacrylamide gel electrophoresis (SDS-PAGE) by lysing cells in lysis buffer (10 mM PO4, pH 7.0, 0.5% sodium dodecyl sulfate). Proteins were collected and immediately placed on ice. Free thiols were capped by the addition of iodoacetamide (10 mM, 30 min, room temperature). Azide-containing proteins were labeled by treatment with FAM-BCN (10 μM, 5 hours, room temperature). Excess FAM-BCN was removed by precipitating proteins with 4× sample volume of cold acetone (−20° C.). Lysates were incubated in acetone (1 h, −20° C.) and then subjected to centrifugation (14,000×g, 10 min). Proteins were redissolved in lysis buffer with gentle heating (40° C., 10 min), precipitated once more, and washed with 4× sample volume acetone before drying (20 min). Proteins were then dissolved in SDS-PAGE sample buffer (50 mM Tris-HC, 2% SDS, 10% glycerol, 12.5% β-mercaptoethanol, 0.025% bromophenol blue). Proteins were electrophoretically separated by a 12% polyacrylamide gel by applying a potential of 105 V. After electrophoresis, gels were scanned on a Typhoon FLA9000 fluorescent gel scanner before being stained with coomassie dye.

[2] = tested on: HeLa cells; experiment: Spatial labeling of phototagged cells in 3D tissue culture (PEG hydrogel, slitted photomask); assay type: cell-based; details: cells in oxime-based PEG hydrogels (7 wt %), irradiated through slitted photomask
Excerpt: Cells were encapsulated in oxime-based poly(ethylene glycol) hydrogels (7 wt %), treated with NPPOC-Aha and selectively irradiated through a slitted photomask. Cells were fixed and fluorescently labeled with FAM-BCN, phalloidin, and Hoechst. […] FAM fluorescence decreased exponentially away from exposed regions in a diffusion-predicted manner. Actin and DNA staining lack substantial patterning (FIG. 4).
HeLa cells were liberated from the tissue culture plate with trypsin, resuspended in FBS-supplemented DMEM, and pelleted by centrifugation. The cells were then gently resuspended in depleted media containing the photocaged Aha. Hydrogel precursors (10 k PEG functionalized with alkoxyamines or benzaldehyde) were combined (1:1 benzaldehyde:alkoxyamine stoichiometry) with cells prior to deposition on a glass-bottomed well plate (7 wt %, 10 mM aniline, 5 million cells/mL). After the gel had formed (30 min), it was inundated with depleted media containing […] (100 μM 30 min). Excess media was removed by aspiration and a subsection of the gel was irradiated with light (365 nm, 10 mW/cm2, 5 min) through a slitted photomask. Gels were washed with warm 1×DPBS (37° C., 15 min) before fixing with formaldehyde (4%, 1 hr, room temperature). Fixed cells were rinsed with 1×DPBS, and permeabilized with Triton™ X-100 (Sigma, 0.5%, 1 hr, room temperature). Cells were then washed (3×, 1 hr each) with 1×DPBS. […]

[3] = NPPOC-Aha photo-uncaging (photolysis) kinetics by HPLC; assay type: physicochemical
Excerpt: For this system to be effective, the kinetics of NPPOC uncaging should be rapid, such that the liberation of free Aha is not rate limiting compared with the biological processes under study. To determine its photolysis kinetics, NPPOC-Aha (dissolved in H2O:CH3CN, 50:50) was irradiated with collimated UV light (λ=365 nm, 10 mW cm^−2, 0-600 s exposure). Degradation products were quantitatively analyzed by HPLC, with elution fractions compositionally identified by mass spectrometry.
To determine the kinetics of NPPOC-Aha uncaging upon UV light exposure, NPPOC-Aha (3.4 mM dissolved in 50:50 dH2O:CH3CN) was placed in quartz NMR tubes and irradiated with collimated UV light (365 nm, 10 mW/cm^2) emanating from an OmniCure (series 1500; light intensity measured with Cole-Palmer series 9811 radiometer). Time points were collected every 120 s for a total of 600 s. The resulting degradation products were separated by reverse-phase HPLC, eluting with a CH3CN/dH2O gradient ramping from 5% to 100% CH3CN over 55 minutes. Remaining NPPOC-Aha was identified by HRMS (ESI+). Calculated for C14H18N5O6 [M+1H]+, 352.1257; observed 352.1259 (Δ=0.5 ppm). The HPLC peak corresponding to starting material was integrated and monitored over time.

[4] = tested on: HeLa cells; experiment: NPPOC-Aha in vitro stability in media with HeLa cells; assay type: in vitro ADME
Description: To assess its in vitro stability, NPPOC-Aha (100 μM) was incubated in media with HeLa cells for 0-4 hr prior to light exposure (10 mW cm^−2, 5 min) and subsequent metabolic labeling (2 hr). […] Such stability is useful in sampling biological systems, as it decouples media swaps from proteome labeling, allowing researchers to standardize their experimental conditions.
The stability of NPPOC-Aha was conducted using the above protocols for cell culture and SDS-PAGE with minor modifications. Instead of irradiating samples immediately following addition of NPPOC-Aha media, NPPOC-Aha was incubated in the presence of cells for the desired time (0-4 hours) prior to light exposure. Met (3.33 μM) was added to all media, yielding a 30:1 ratio of NPPOC-Aha:Met5.

[5] = tested on: HeLa cells; experiment: Fluorescent labeling of phototagged fixed cells (confocal imaging); assay type: cell-based; details: NPPOC-Aha 100 μM in the absence of light
Description: Building on the capability to fluorescently tag cellular lysates as well as isolate species of interest via laBONCAT, the technique's unique ability to label newly synthesized proteins in vitro with spatial control was investigated; this method could be applied to the isolation of proteins […] at user-specified times and locations from heterogeneous features in tissue culture, especially tissue slices. HeLa cells were treated with NPPOC-Aha (100 μM) and exposed to light (λ=365 nm, 10 mW cm^−2, 5 min). Two hours after exposure, cells were fixed, permeabilized, and treated with FAM-BCN (100 nM) to introduce a fluorescent label via SPAAC.
To fluorescently label Aha-tagged proteins for visualization, cells were rinsed with warm 1×DPBS (37° C.) before fixing with formaldehyde (4%, 10 min, room temperature). Fixed cells were rinsed with 1×DPBS, and permeabilized with Triton™ X-100 (Sigma, 0.5%, 2 min, room temperature). Cells were then washed (3×, 5 min each) with 1×DPBS. Azides were labeled by strain-promoted azide-alkyne cycloaddition (SPAAC) with FAM-BCN (100 nM, 30 min, room temperature) in the dark. Next, labeled cells were washed (3×, 5 min each) with 1×DPBS prior to imaging on a Leica SP8X laser scanning confocal microscope.

[6] = control media with Aha or Met in place of NPPOC-Aha

SMILES | effect of UV irradiation on protein labeling ([1]; Aha 50 μM +/− light (10 mW cm^−2, 5 min)) | protein fluorescence (extent of Aha incorporation) [1, 6] | free Aha concentration above which normalized incorporation plateaus ([1]; incorporation normalized for expected liberated Aha predicted by the photokinetics) | cellular FAM signal pattern (patterned Aha incorporation) [2] | first-order decay constant for NPPOC photolysis ([3]; H2O:CH3CN 50:50, collimated UV λ=365 nm, 10 mW cm^−2, 0-600 s) [s⁻¹] | NPPOC cleaved ([3]; after 5 minutes of irradiation, 365 nm, 10 mW cm-2) [%] | Aha incorporation after pre-incubation, non-irradiated samples ([4]; 100 μM, 0-4 hr in media with HeLa cells, no light) | Aha incorporation after pre-incubation, irradiated samples ([4]; 100 μM, 0-4 hr in media with HeLa cells, then light) | working time (stability in media with cells) ([4]; NPPOC-Aha 100 μM incubated with HeLa cells 0-4 hr before light (10 mW cm^−2, 5 min), labeling 2 hr) [h] | extent of fluorescent labeling of fixed cells [5] | Aha incorporation as function of NPPOC-Aha concentration ([1]; NPPOC-Aha 0-250 μM, given exposure condition) | protein fluorescence (extent of Aha incorporation) ([1]; NPPOC-Aha 250 μM, UV-treated (365 nm, 10 mW cm^−2, 5 min), lysis 2 h after exposure) | protein fluorescence (extent of Aha incorporation) ([1]; NPPOC-Aha 250 μM, non-irradiated) | dependence of protein labeling on mode of irradiation ([1]; NPPOC-Aha irradiated separately or during incubation with cells) | incorporation of irradiated NPPOC-Aha compared with Aha ([1]; each at 100 μM, NPPOC-Aha + light) | metabolic labeling as function of light intensity ([1]; low NPPOC-Aha concentrations, 0-10 mW cm^−2)
[N-]=[N+]=NCC[C@H](N)C(=O)O [Aha, L-Azidohomoalanine, reference compound] | no statistical difference | significant fluorescent enhancement | about 50 μM |  |  |  |  |  |  |  |  |  |  |  |  | 
CSCC[C@H](N)C(=O)O [Met, L-methionine, reference compound] |  | lack of fluorescence |  |  |  |  |  |  |  |  |  |  |  |  |  | 
CC(COC(=O)N[C@@H](CCN=[N+]=[N-])C(=O)O)c1ccccc1[N+](=O)[O-] (stereo partly drawn) [NPPOC-Aha, (2S)-4-azido-2-({[2-(2-nitrophenyl)propoxy]carbonyl}amino)butanoic Acid] |  |  |  | localized near exposed regions | 0.0075 ± 0.0002 | 90 | did not show increased incorporation over time | extent decreased over time | > 4 | low-level labeling similar to Met | increased with NPPOC-Aha concentration | significant fluorescent enhancement | lack of fluorescence | does not depend on whether NPPOC-Aha is irradiated separately or during incubation with cells | slightly less incorporation than Aha alone | increased with light intensity
